Measured values as given in patent US12077503B2, “Substituted cyclic amides and their use as herbicides” (FMC CORPORATION, priority 2015, dated 2024).

Tests used:
[1] = system: pigweed (Amaranthus retroflexus); assay: Test C preemergence; format: in vivo; settings: for Plant response rating, Pigweed: scale 0 to 100, 0 no effect, 100 complete control
In short: (§1)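 Preemergence: sow in loam-sand soil and treat. Postemergence: grow in peat-moss/vermiculite medium to 2–18 cm (1–4 leaves) and spray. Compound in non-phytotoxic solvent with surfactant; keep in greenhouse 13–15 d; score visually against controls, 0 (none) to 100 (full control).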

[2] = system: morningglory (Ipomoea coccinea); assay: Test C preemergence; format: in vivo; settings: for Plant response rating, Morningglory: scale 0 to 100, 0 no effect, 100 complete control
In short: as §1

[3] = system: nutsedge, yellow (yellow nutsedge, Cyperus esculentus); assay: Test C preemergence; format: in vivo; settings: for Plant response rating, Nutsedge, Yellow: scale 0 to 100, 0 no effect, 100 complete control
In short: as §1

[4] = system: Galium (catchweed bedstraw, Galium aparine); assay: Test C preemergence; format: in vivo; settings: for Plant response rating, Galium: scale 0 to 100, 0 no effect, 100 complete control
In short: as §1

[5] = system: barnyardgrass (Echinochloa crus-galli); assay: Test C preemergence; format: in vivo; settings: for Plant response rating, Barnyardgrass: scale 0 to 100, 0 no effect, 100 complete control
In short: as §1

[6] = system: ragweed (common ragweed, Ambrosia elatior); assay: Test C preemergence; format: in vivo; settings: for Plant response rating, Ragweed: scale 0 to 100, 0 no effect, 100 complete control
In short: as §1

soybean (Glycine max) = assay: Test C preemergence; format: in vivo; settings: for Plant response rating, Soybean: scale 0 to 100, 0 no effect, 100 complete control
In short: as §1

[7] = system: ryegrass, Italian (Italian ryegrass, Lolium multiflorum); assay: Test C preemergence; format: in vivo; settings: for Plant response rating, Ryegrass, Italian: scale 0 to 100, 0 no effect, 100 complete control
In short: as §1

corn (Zea mays) = assay: Test C preemergence; format: in vivo; settings: for Plant response rating, Corn: scale 0 to 100, 0 no effect, 100 complete control
In short: as §1

[8] = system: waterhemp (common waterhemp, Amaranthus rudis); assay: Test C preemergence; format: in vivo; settings: for Plant response rating, Waterhemp: scale 0 to 100, 0 no effect, 100 complete control
In short: as §1

[9] = system: crabgrass, large (large crabgrass, Digitaria sanguinalis); assay: Test C preemergence; format: in vivo; settings: for Plant response rating, Crabgrass, Large: scale 0 to 100, 0 no effect, 100 complete control
In short: as §1

[10] = system: johnsongrass (Sorghum halepense); assay: Test C preemergence; format: in vivo; settings: for Plant response rating, Johnsongrass: scale 0 to 100, 0 no effect, 100 complete control
In short: as §1

[11] = system: velvetleaf (Abutilon theophrasti); assay: Test C preemergence; format: in vivo; settings: for Plant response rating, Velvetleaf: scale 0 to 100, 0 no effect, 100 complete control
In short: as §1

[12] = system: lambsquarters (Chenopodium album); assay: Test C preemergence; format: in vivo; settings: for Plant response rating, Lambsquarters: scale 0 to 100, 0 no effect, 100 complete control
In short: as §1

[13] = system: foxtail, giant (giant foxtail, Setaria faberii); assay: Test C preemergence; format: in vivo; settings: for Plant response rating, Foxtail, Giant: scale 0 to 100, 0 no effect, 100 complete control
In short: as §1

[14] = system: oilseed rape (Brassica napus); assay: Test C preemergence; format: in vivo; settings: for Plant response rating, Oilseed Rape: scale 0 to 100, 0 no effect, 100 complete control
In short: as §1

[15] = system: blackgrass (Alopecurus myosuroides); assay: Test C preemergence; format: in vivo; settings: for Plant response rating, Blackgrass: scale 0 to 100, 0 no effect, 100 complete control
In short: as §1

[16] = system: wheat (winter wheat, Triticum aestivum); assay: Test C preemergence; format: in vivo; settings: for Plant response rating, Wheat: scale 0 to 100, 0 no effect, 100 complete control
In short: as §1

[17] = system: barnyardgrass (Echinochloa crus-galli); assay: Test C flooded paddy test; format: in vivo; settings: Flood; for Plant response rating (scale of 0 to 100), Barnyardgrass: 0 is no effect, 100 is complete control
In short: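 Plants grown to the 2-leaf stage in pots flooded to 3 cm above soil; compounds applied directly into the paddy water, depth held throughout. After 13 to 15 d in greenhouse, injury visually rated against untreated controls on a 0–100 scale (0 no effect, 100 complete control).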

[18] = 31 g ai/ha, 0 is no effect, 100 is complete control

CN1CC(c2cc(F)cc(F)c2)C(C(=O)Nc2cccc(F)c2F)C1=O (stereo not shown) [Compound 644]
55: Plant response rating, Pigweed ([1]; 62 g ai/ha) | Plant response rating, Pigweed ([1]; 125 g ai/ha) | Plant response rating, Ryegrass, Italian ([7]; 62 g ai/ha)
50: Plant response rating (scale of 0 to 100), Ryegrass, Italian [7, 18] | Plant response rating, Corn (corn (Zea mays); 62 g ai/ha) | Plant response rating (scale of 0 to 100), Lambsquarters [12, 18] | Plant response rating, Oilseed Rape ([14]; 62 g ai/ha)
5: Plant response rating (scale of 0 to 100), Velvetleaf [11, 18]
0: Plant response rating (scale of 0 to 100), Pigweed [1, 18] | Plant response rating (scale of 0 to 100), Morningglory [2, 18] | Plant response rating, Morningglory ([2]; 62 g ai/ha) | Plant response rating, Morningglory ([2]; 125 g ai/ha) | Plant response rating, Morningglory ([2]; 250 g ai/ha) | Plant response rating (scale of 0 to 100), Nutsedge, Yellow [3, 18] | Plant response rating, Nutsedge, Yellow ([3]; 62 g ai/ha) | Plant response rating, Nutsedge, Yellow ([3]; 125 g ai/ha) | Plant response rating, Soybean (soybean (Glycine max); 125 g ai/ha) | Plant response rating (scale of 0 to 100), Oilseed Rape [14, 18]
85: Plant response rating, Galium ([4]; 62 g ai/ha) | Plant response rating, Ragweed ([6]; 250 g ai/ha) | Plant response rating, Corn (corn (Zea mays); 250 g ai/ha) | Plant response rating, Johnsongrass ([10]; 125 g ai/ha) | Plant response rating, Johnsongrass ([10]; 250 g ai/ha) | Plant response rating, Lambsquarters ([12]; 125 g ai/ha) | Plant response rating, Lambsquarters ([12]; 250 g ai/ha) | Plant response rating, Oilseed Rape ([14]; 125 g ai/ha) | Plant response rating, Wheat ([16]; 125 g ai/ha)
35: Plant response rating, Ragweed ([6]; 62 g ai/ha) | Plant response rating (scale of 0 to 100), Johnsongrass [10, 18]
100: Plant response rating, Crabgrass, Large ([9]; 250 g ai/ha)
75: Plant response rating, Lambsquarters ([12]; 62 g ai/ha) | Plant response rating (scale of 0 to 100), Barnyardgrass ([17]; 125 g ai/ha)
65: Plant response rating, Ryegrass, Italian ([7]; 125 g ai/ha) | Plant response rating, Corn (corn (Zea mays); 125 g ai/ha) | Plant response rating, Waterhemp ([8]; 62 g ai/ha) | Plant response rating, Waterhemp ([8]; 125 g ai/ha)
60: Plant response rating, Velvetleaf ([11]; 250 g ai/ha) | Plant response rating (scale of 0 to 100), Barnyardgrass ([17]; 62 g ai/ha)
10: Plant response rating (scale of 0 to 100), Galium [4, 18] | Plant response rating (scale of 0 to 100), Soybean (soybean (Glycine max); [18]) | Plant response rating, Soybean (soybean (Glycine max); 62 g ai/ha) | Plant response rating (scale of 0 to 100), Waterhemp [8, 18]
90: Plant response rating, Galium ([4]; 125 g ai/ha) | Plant response rating (scale of 0 to 100), Barnyardgrass [5, 18] | Plant response rating, Oilseed Rape ([14]; 250 g ai/ha) | Plant response rating, Blackgrass ([15]; 125 g ai/ha) | Plant response rating, Wheat ([16]; 250 g ai/ha) | Plant response rating (scale of 0 to 100), Barnyardgrass ([17]; 250 g ai/ha)
70: Plant response rating, Pigweed ([1]; 250 g ai/ha) | Plant response rating, Ragweed ([6]; 125 g ai/ha) | Plant response rating, Johnsongrass ([10]; 62 g ai/ha) | Plant response rating (scale of 0 to 100), Blackgrass [15, 18] | Plant response rating, Blackgrass ([15]; 62 g ai/ha)
15: Plant response rating, Nutsedge, Yellow ([3]; 250 g ai/ha) | Plant response rating, Velvetleaf ([11]; 62 g ai/ha)
40: Plant response rating, Velvetleaf ([11]; 125 g ai/ha) | Plant response rating, Barnyardgrass ([17]; 31 g ai/ha, scale 0 to 100 (0 no effect, 100 complete control), 13 to 15 d)
95: Plant response rating, Barnyardgrass ([5]; 62 g ai/ha) | Plant response rating (scale of 0 to 100), Crabgrass, Large [9, 18] | Plant response rating, Crabgrass, Large ([9]; 62 g ai/ha) | Plant response rating (scale of 0 to 100), Foxtail, Giant [13, 18] | Plant response rating, Foxtail, Giant ([13]; 62 g ai/ha) | Plant response rating, Blackgrass ([15]; 250 g ai/ha)
80: Plant response rating, Waterhemp ([8]; 250 g ai/ha) | Plant response rating, Wheat ([16]; 62 g ai/ha)
25: Plant response rating (scale of 0 to 100), Ragweed [6, 18]
30: Plant response rating (scale of 0 to 100), Corn (corn (Zea mays); [18]) | Plant response rating (scale of 0 to 100), Wheat [16, 18]
98: Plant response rating, Galium ([4]; 250 g ai/ha) | Plant response rating, Barnyardgrass ([5]; 125 g ai/ha) | Plant response rating, Barnyardgrass ([5]; 250 g ai/ha) | Plant response rating, Ryegrass, Italian ([7]; 250 g ai/ha) | Plant response rating, Crabgrass, Large ([9]; 125 g ai/ha) | Plant response rating, Foxtail, Giant ([13]; 125 g ai/ha) | Plant response rating, Foxtail, Giant ([13]; 250 g ai/ha)

CC(C)=CC1CNC(=O)C1C(=O)Nc1cccc(F)c1F (stereo not shown) [Compound 1012]
162 to 166 °C: melting point
